In BindingDB's records for doi:10.1016/j.bmcl.2018.10.045 (Merck, 2019):

Columns and labels:
[1] = Inhibition of NS5B polymerase in HCV genotype 2B infected in HuH7 cells after 40 hrs by Taqman probe based RT-PCR analysis
[2] = Inhibition of NS5B polymerase S365A mutant in HCV genotype 1A infected in HuH7 cells after 40 hrs by Taqman probe based RT-PCR analysis
[3] = Inhibition of NS5B polymerase C316Y mutant in HCV genotype 1A infected in HuH7 cells after 40 hrs by Taqman probe based RT-PCR analysis
[4] = Inhibition of NS5B polymerase in HCV genotype 1a infected in HuH7 cells after 40 hrs by Taqman probe based RT-PCR analysis
[5] = Inhibition of NS5B polymerase in HCV genotype 1b infected in HuH7 cells after 40 hrs by Taqman probe based RT-PCR analysis
[6] = Inhibition of NS5B polymerase in HCV genotype 2A infected in HuH7 cells after 40 hrs by Taqman probe based RT-PCR analysis
[7] = Inhibition of NS5B polymerase in HCV genotype 4A infected in HuH7 cells after 40 hrs by Taqman probe based RT-PCR analysis
[8] = Inhibition of NS5B polymerase in HCV genotype 3A infected in HuH7 cells after 40 hrs by Taqman probe based RT-PCR analysis
[9] = Inhibition of NS5B polymerase E1202G/T1280I/S2197P mutant in HCV genotype 1b infected in human HuH7 replicon cells after 72 hrs in presence of 50% human serum by luciferase-based reporter assay
[10] = Inhibition of NS5B polymerase E1202G/T1280I/S2197P mutant in HCV genotype 2a infected in human HuH7 replicon cells after 72 hrs in presence of 10% FBS by luciferase-based reporter assay
[11] = Inhibition of NS5B polymerase E1202G/T1280I/S2197P mutant in HCV genotype 1b infected in human HuH7 replicon cells after 72 hrs in presence of 10% FBS by luciferase-based reporter assay
[12] = Inhibition of NS5B polymerase E1202G/T1280I/S2197P mutant in HCV genotype 1a infected in human HuH7 replicon cells after 72 hrs in presence of 10% FBS by luciferase-based reporter assay

Row | SMILES | EC50 [1] | EC50 [2] | EC50 [3] | EC50 [4] | EC50 [5] | EC50 [6] | EC50 [7] | EC50 [8] | EC50 [9] | EC50 [10] | EC50 [11] | EC50 [12]
1 | CNC(=O)c1c(-c2ccc(F)cc2)oc2cc(N(C)S(C)(=O)=O)c(-c3ccc4c(n3)-c3cc5c(F)cccc5n3C4)cc12 [US9243002, 88] | 3.9 nM | 34 nM | 9.5 nM | 2.2 nM | 5.1 nM | 8.5 nM | 2.7 nM | 3 nM |  |  |  | 
2 | CNC(=O)c1c(-c2ccc(F)cc2)oc2cc(N(C)S(C)(=O)=O)c(-c3ccc4c(n3)-c3cc5c(F)cccc5n3CCCC4)cc12 [US9243002, 99] | 3.8 nM | 42 nM | 13 nM | 2 nM | 5.2 nM | 26 nM | 3.5 nM | 1.9 nM |  |  |  | 
3 | CNC(=O)c1c(-c2ccc(F)cc2)oc2cc(N(C)S(C)(=O)=O)c(-c3ccc4ncn5c6cccc(F)c6cc5c4n3)cc12 | 2.4 nM | 1 nM | 3.1 nM | 0.68 nM | 1.4 nM | 3.4 nM | 0.63 nM | 1 nM | 16 nM | 3.3 nM | 3.2 nM | 2 nM
4 | CNC(=O)c1c(-c2ccc(F)cc2)oc2cc(N(C)S(C)(=O)=O)c(-c3cc4n(c(=O)c3)CCn3c-4cc4c(F)cccc43)cc12 | 2.2 nM | 6.4 nM | 9.8 nM | 0.61 nM | 1.3 nM | 11 nM | 1.5 nM | 0.62 nM |  |  |  | 
5 | CNC(=O)c1c(-c2ccc(F)cc2)oc2cc(N(C)S(C)(=O)=O)c(-c3ccc4c(n3)-c3cc5c(F)cccc5n3CN4)cc12 | 2.9 nM | 3.1 nM | 7.6 nM | 0.9 nM | 1.8 nM | 5.7 nM | 1.1 nM | 1 nM | 46 nM | 6.4 nM | 5.3 nM | 5.3 nM
6 | CNC(=O)c1c(-c2ccc(F)cc2)oc2cc(N(C)S(C)(=O)=O)c(-c3ccc4c(n3)-c3cc5c(F)cccc5n3CCC4)cc12 [US9243002, 72] | 6.5 nM | 16 nM | 26 nM | 1.1 nM | 1.9 nM | 6.8 nM | 1.5 nM | 1.2 nM |  |  |  | 
7 | CNC(=O)c1c(-c2ccc(F)cc2)oc2cc(N(C)S(C)(=O)=O)c(-c3ccc4ccn5c6cccc(F)c6cc5c4n3)cc12 [US9243002, 82] | 3.5 nM | 4.8 nM | 11 nM | 0.95 nM | 2.6 nM | 6.7 nM | 1.2 nM | 1.2 nM | 30 nM | 6.3 nM | 5.5 nM | 2.9 nM
8 | CNC(=O)c1c(-c2ccc(F)cc2)oc2cc(N(C)S(C)(=O)=O)c(-c3ccc4c(n3)-c3cc5c(F)cccc5n3CC4)cc12 [US9243002, 85] | 2.7 nM | 6.5 nM | 8.4 nM | 0.86 nM | 2.1 nM | 6 nM | 1.2 nM | 1.1 nM | 13 nM | 5.7 nM | 3.3 nM | 3 nM
